Here are results for nine compounds from patent publication EP4656642A1, “ESTROGEN RECEPTOR PROTEOLYSIS TARGETING CHIMERA COMPOUND AND USE THEREOF” (GAN & LEE PHARM CO., LTD, priority 2023, dated 2024).

Holding throughout (type): cell-based
One test addresses T1, AR protein (Homo sapiens, UniProt P10275).
T1 construct: host or cells: VCaP
T1 sequence (P10275 1-920): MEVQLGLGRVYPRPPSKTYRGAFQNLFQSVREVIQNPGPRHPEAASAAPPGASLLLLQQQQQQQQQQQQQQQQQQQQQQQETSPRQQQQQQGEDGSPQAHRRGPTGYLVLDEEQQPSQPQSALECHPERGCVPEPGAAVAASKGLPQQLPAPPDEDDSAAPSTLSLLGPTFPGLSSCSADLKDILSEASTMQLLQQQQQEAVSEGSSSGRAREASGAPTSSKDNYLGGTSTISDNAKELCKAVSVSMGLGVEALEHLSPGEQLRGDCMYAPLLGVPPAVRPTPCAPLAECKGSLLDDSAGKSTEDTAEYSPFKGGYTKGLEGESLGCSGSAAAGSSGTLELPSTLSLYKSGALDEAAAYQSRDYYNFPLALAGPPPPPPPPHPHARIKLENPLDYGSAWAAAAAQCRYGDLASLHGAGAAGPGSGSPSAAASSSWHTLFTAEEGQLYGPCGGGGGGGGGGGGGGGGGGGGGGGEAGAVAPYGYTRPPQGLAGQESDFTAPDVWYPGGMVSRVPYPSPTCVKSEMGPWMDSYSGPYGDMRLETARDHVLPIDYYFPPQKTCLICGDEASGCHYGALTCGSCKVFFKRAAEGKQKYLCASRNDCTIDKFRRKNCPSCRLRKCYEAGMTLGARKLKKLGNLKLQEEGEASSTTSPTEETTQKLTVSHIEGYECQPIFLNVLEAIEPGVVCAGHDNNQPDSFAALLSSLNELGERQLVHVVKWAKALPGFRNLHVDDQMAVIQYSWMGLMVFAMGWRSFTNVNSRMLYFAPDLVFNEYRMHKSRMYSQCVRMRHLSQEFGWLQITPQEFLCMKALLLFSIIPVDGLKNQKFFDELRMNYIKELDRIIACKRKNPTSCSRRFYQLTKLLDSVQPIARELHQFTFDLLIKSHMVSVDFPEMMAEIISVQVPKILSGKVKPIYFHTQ
Conditions: 8 h. How it is done:
Test Example 9 Degradation activity of the compounds disclosed in the present disclosure against AR protein in VCAP cells (cell source: ATCC)
AR-positive human prostate cancer cells, VCaP, were inoculated in six-well microplates (Thermo Catalog No. 140675) in DMEM (GiBco Catalog No. 11995-065) containing 10% FBS (Hyclone Catalog No. SH30406.05) at a density of 3 × 10^5 cells/well. […] After 8 h, the culture medium was discarded, and cells were washed with PBS, then RIPA lysis buffer containing 1% Protease Inhibitor Cocktail was added, and the total protein extract was obtained after lysis and centrifugation, and the protein concentration in the extract was detected by BCA method. Protein electrophoresis was carried out by SDS-PAGE, after which the protein was transferred to PVDF (Millipore Sigma catalog number PSRP010R5) membrane by 100V constant-voltage electrotransfer for 60 min, and the PVDF membrane was placed in 1×TBST solution with 5% milk and blocked at room temperature for 1 h. The primary antibody solution (Anti-Androgen receptor, Cell Signaling Technology Catalog No. 5153S; 1: 2000 dilution) was prepared and incubated overnight at 4°C. The primary antibody solution was discarded, and the PVDF membrane was washed three times with 1× TBST for 5 min each. The secondary antibody solution (Thermo catalog number SA5-35571; 1:7500 dilution) was prepared, and the secondary antibody dilution was incubated at room temperature for 1h. The secondary antibody solution was discarded, and the PVDF membrane was washed three times with 1×TBST for 5 min each. Western membrane imaging was performed using a dual-color infrared laser imaging system (Licor catalog number Odyssey CLX). Bands were analyzed in grayscale using the software Image Studio. For each sample, GAPDH protein bands were detected as internal reference. The degradation rates of the AR protein for the compounds and positive control sample were calculated based on the grayscale of the protein bands.

In the next test the test system is VCaP cells. The test can be described thus: Inhibition of proliferation of VCaP cells (WST-8, 168 hours). Conditions: VCaP cells, 168 hours, WST-8. How it is done:
Test Example 7 Inhibitory activity of the compounds disclosed in the present disclosure on the proliferation of VCaP cells
VCaP cells (ATCC, CRL-2876) were cultured in DMEM (Gibco, 11995-065) complete medium containing 10% fetal bovine serum (Hyclone, SH30406.05). On the first day of the experiment, VCaP cells were inoculated in 96-well plates at a density of 15,000 cells/well using DMEM medium containing 10% fetal bovine serum, with 100µL of cell suspension per well, and placed in a cell culture incubator with 5% CO2 at 37°C overnight. […] The compound concentrations were prepared in complete DMEM medium and serially diluted 5-fold starting from 10 µM, resulting in a total of nine concentration points. Wells receiving 100 µL of DMEM medium containing 10% FBS only were used as blank controls. The plates were incubated at 37°C in a 5% CO2 incubator for 168 hours.

The test system of the next test is LNCAP FGC cells. The test can be described thus: Inhibition of LNCAP cell proliferation (WST-8, 96 hours). As to conditions: LNCAP FGC cells, 96 hours, WST-8. On the procedure:
Test Example 8 Inhibitory activity of the compounds disclosed in the present disclosure on LNCAP cell proliferation
LNCAP FGC cells (ATCC, CLR-1740) were cultured in RPMI 1640 (ATCC, 30-2001) complete medium containing 10% fetal bovine serum (Hyclone, SH30406.05). On the first day of the experiment, LNCaP FGC cells were inoculated in 96-well plates at a density of 5,000 cells/well using RPMI 1640 medium containing 10% fetal bovine serum, with 100µL of cell suspension per well, and placed in a cell culture incubator with 5% CO2 at 37°C overnight. […] The compound concentrations were prepared in complete […] medium and serially diluted 5-fold starting from 10 µM, resulting in a total of nine concentration points. Wells receiving 100 µL of RPMI 1640 medium containing 10% FBS only were used as controls. The plates were incubated at 37°C in a 5% CO2 incubator for 96 hours.
In general terms: Tetrazolium dyes change colour on reduction, which living cells bring about.

Regarding `COc1cc(O[C@H]2C(C)(C)[C@H](NC(=O)c3ccc(N4CCC(CN5CCC6(CC5)COc5c6ccc6c5C(=O)N(C5CCC(=O)NC5=O)C6)(OC)CC4)cc3)C2(C)C)ccc1C#N` (relative stereo) [2-293], the “Degradation rates of the AR protein in VCAP cells, 0.5 nM” value (from here on “Degradation rates … 0.5 nM”) at AR protein is 72%. The “Degradation rates of the AR protein in VCAP cells, 5 nM” value on AR protein stood at 89%. For the same compound, the half-inhibitory concentration (IC50) came out at 5 nM with VCaP cells and 88100 nM in the test with LNCAP FGC cells.

Take `C[C@H]1CC2(CCN(c3ccc(N4CCC(CN5CCC6(CC5)COc5c6ccc6c5C(=O)N(C5CCC(=O)NC5=O)C6)CC4)cc3)CC2)CN1c1ccc(C#N)c(Cl)c1` (stereo partly drawn) [2-103]: at AR protein, the “Degradation rates … 0.5 nM” value is reported as 0% and the “Degradation rates of the AR protein in VCAP cells, 5 nM” value came to 47%. The same compound showed an IC50 with VCaP cells of 36 nM. Moreover, the IC50 with LNCAP FGC cells was 850 nM.

With `COc1cc(O[C@H]2CC[C@H](NC(=O)c3ccc(N4CCC(F)(CN5CCC6(CC5)COc5c6ccc6c5C(=O)N(C5CCC(=O)NC5=O)C6)CC4)nn3)CC2)ccc1C#N` (relative stereo) [2-316], at AR protein, the “Degradation rates … 0.5 nM” value is 35% and the “Degradation rates of the AR protein in VCAP cells, 5 nM” value was 61%. Moreover, the midpoint of inhibition in the test on VCaP cells, the IC50, lay at 2 nM. Further, the IC50 in the test with LNCAP FGC cells worked out at 68200 nM.

In the case of `COc1cc(O[C@H]2C(C)(C)[C@H](NC(=O)c3ccc(N4CCC(CN5CCC6(CC5)COc5c6ccc6c5C(=O)N(C5CCC(=O)NC5=O)C6)CC4)cc3)C2(C)C)ccc1C#N` (relative stereo) [2-318], on AR protein, the “Degradation rates … 0.5 nM” value is 55% and the “Degradation rates of the AR protein in VCAP cells, 5 nM” value was found to be 78%. In the test on VCaP cells, this compound displayed a half-maximal inhibitory concentration (IC50) of 1 nM. For the same compound, the IC50 in the test with LNCAP FGC cells was 9850 nM.

Turning to `CC1(CN2CCC3(CC2)COc2c3ccc3c2C(=O)N(C2CCC(=O)NC2=O)C3)CCN(c2ccc(C(=O)N[C@H]3CC[C@H](Oc4ccc(C#N)c(Cl)c4)CC3)nn2)CC1` (relative stereo) [2-262], at AR protein, the “Degradation rates … 0.5 nM” value is 34% and the “Degradation rates of the AR protein in VCAP cells, 5 nM” value is recorded as 75%. The compound further gave a half-maximal inhibitory concentration (IC50) in the test with VCaP cells of 11 nM. For the same compound, in the test with LNCAP FGC cells, half-maximal inhibition (IC50) required 21300 nM.

As for `COc1cc(O[C@H]2C(C)(C)[C@H](NC(=O)c3ccc(N4CCC(C)(CN5CCC6(CC5)COc5c6ccc6c5C(=O)N(C5CCC(=O)NC5=O)C6)CC4)cc3)C2(C)C)ccc1C#N` (relative stereo) [2-292], on AR protein, the “Degradation rates … 0.5 nM” value was determined as 30% and the “Degradation rates of the AR protein in VCAP cells, 5 nM” value is 72%. Besides, in the test with VCaP cells, half-maximal inhibition (IC50) required 3 nM. Besides, in the test on LNCAP FGC cells, the IC50 worked out at 68500 nM.

As to `COc1cc(O[C@H]2CC[C@H](NC(=O)c3ccc(N4CCC(C)(CN5CCC6(CC5)COc5c6ccc6c5C(=O)N(C5CCC(=O)NC5=O)C6)CC4)nn3)CC2)ccc1C#N` (relative stereo) [2-261], at AR protein, the “Degradation rates … 0.5 nM” value is recorded as 44% and the “Degradation rates of the AR protein in VCAP cells, 5 nM” value was 82%. The compound also came in with a concentration for half-maximal inhibition (IC50) in the test with VCaP cells of 12 nM. For the same compound, the IC50 in the test with LNCAP FGC cells amounted to 49100 nM.

Turning to `N#Cc1ccc(O[C@H]2CC[C@H](NC(=O)c3ccc(N4CCC(F)(CN5CCC6(CC5)COc5c6ccc6c5C(=O)N(C5CCC(=O)NC5=O)C6)CC4)nn3)CC2)cc1Cl` (relative stereo) [2-315], the “Degradation rates … 0.5 nM” value on AR protein is 31%. For the same compound, the “Degradation rates of the AR protein in VCAP cells, 5 nM” value on AR protein is 71%. The IC50 in the test with VCaP cells stood at 7 nM; in the test on LNCAP FGC cells it was 2450 nM.

In the case of `COC1(CN2CCC3(CC2)COc2c3ccc3c2C(=O)N(C2CCC(=O)NC2=O)C3)CCN(c2ccc(C(=O)N[C@H]3CC[C@H](Oc4ccc(C#N)c(Cl)c4)CC3)nn2)CC1` (relative stereo) [2-263], the “Degradation rates … 0.5 nM” value on AR protein stood at 65%. At AR protein, the “Degradation rates of the AR protein in VCAP cells, 5 nM” value is 88%. The IC50 with VCaP cells is 11 nM; in the test with LNCAP FGC cells, 6300 nM.

What is called IC50 is the concentration at which inhibition is half-maximal.
